Measurements: PMC10379331, “Identification of a Putative SARS-CoV-2 Main Protease Inhibitor through In Silico Screening of Self-Designed Molecular Library” (International Journal of Molecular Sciences, 2023)

target: M^pro protein (SARS-CoV-2 main protease) (Severe acute respiratory syndrome coronavirus 2, UniProt P0DTD1); assay: FRET-based in vitro enzymatic inhibition assay; format: biochemical; settings: not given

Row | SMILES | IC50 [µM]
1 | Cc1cn(-c2cc(NC(=O)c3ccc(C)c(Nc4nccc(-c5cccnc5)n4)c3)cc(C(F)(F)F)c2)cn1 [Nilotinib, reference compound] | 19.9 ± 1.27

same assay, conditions: 0.2 μM M^pro, 20 μM substrate MCA-[…]-Lys(Dnp)-Lys-NH2, 30 min preincubation at 37 °C; read-out: IC50 Value

Row | SMILES | IC50 [µM]
2 | O=C(c1ccc(-c2cc(Nc3ccc(Cl)cc3Cl)ncn2)cc1)N1CCN(C(=O)c2ccccc2F)CC1 [Compound V159] | > 20
3 | CC(=O)Nc1ccc(-c2ccc(C(=O)N[C@H](C(=O)Nc3ccc(Cl)c(C(F)(F)F)c3)C(C)(C)C)cc2)cn1 [Compound V231] | > 20
4 | CC(C)(C)OCC(NC(=O)c1ccc(-c2cncc(C(=O)NC3CC3)c2)cc1)C(=O)Nc1ccc(Cl)c(C(F)(F)F)c1 (stereo not shown) [Compound V243] | > 20
5 | CCN(CC)C(=O)c1cncc(-c2cccc(C(=O)N[C@@H](C(=O)Nc3ccc(Cl)c(C(F)(F)F)c3)C(C)(C)C)c2)c1 [Compound V226] | > 20
6 | Nc1n[nH]c2cccc(-c3ccc(C(=O)NCCNC(=O)c4ccc(Br)cc4)cc3)c12 [Compound V111] | > 20
7 | CCC(=O)Nc1ccc(-c2cccc(C(=O)N[C@@H]3CN[C@H](C(=O)Nc4ccc(Cl)c(C(F)(F)F)c4)C3)c2)cn1 [Compound V139] | > 20
8 | Nc1nc2cc(-c3cn([C@@H]4CN[C@H](C(=O)Nc5ccc(Cl)c(C(F)(F)F)c5)C4)nn3)cnc2s1 [Compound V304] | > 20
9 | Nc1n[nH]c2cc(-c3cn([C@@H]4CN[C@H](C(=O)Nc5ccc(Cl)c(C(F)(F)F)c5)C4)nn3)ccc12 [Compound V291] | 2.77 ± 0.56
10 | Nc1n[nH]c2cccc(-c3ccc(C(=O)N4CCN(C(=O)c5cccc(F)c5)CC4)cc3)c12 [Compound V205] | > 20
